Results: patent US7928226B2, “Salts and polymorphs of a VEGF-R inhibitor” (Agouron Pharmaceuticals Inc., priority 2005, dated 2011)
Like-named read-outs stand apart in the source and are kept apart here.

Experiments:
[1] = Solid state stability at 40° C./75% RH (HPLC and polymorphic form); format: physicochemical
Protocol: The solid state stabilities as shown in Tables 5 and 7 were measured using the following procedure. A preliminary HPLC method was developed to investigate the stability of the salt forms of compound 1. The HPLC conditions are listed below.

Water solubility = format: physicochemical
[2] = tested on: VEGF-stimulated receptor autophosphorylation; details: cited from earlier work
[3] = tested on: endothelial cell survival; details: cited from earlier work
human xenograft tumors = details: in vivo; cited from earlier work
tumor angiogenesis = details: in vivo; cited from earlier work

| Compound | Solid state stability, polymorphic form found, T (1 week) close ([1]; bis-HBr salt) | Solid state stability, polymorphic form found, T (1 week) open ([1]; bis-HBr salt) | Solid state stability, polymorphic form found, T (4 week) close ([1]; bis-HBr salt) | Solid state stability, polymorphic form found, T (4 week) open ([1]; bis-HBr salt) | Solid state stability, polymorphic form found, T (6 week) close ([1]; bis-HBr salt) | Solid state stability, polymorphic form found, T (6 week) open ([1]; bis-HBr salt) | Solid state stability, polymorphic form found, T (0) ([1]; bis-HBr salt) | Solid state stability, polymorphic form found, T (1 week) close ([1]; bis-maleate salt) | Solid state stability, polymorphic form found, T (4 week) close ([1]; bis-maleate salt) | Solid state stability (HPLC %) T (6 week) close ([1]; bis-maleate salt) | Solid state stability, polymorphic form found, T (6 week) close ([1]; bis-maleate salt) | Solid state stability (HPLC %) T (0) ([1]; bis-maleate salt) | Solid state stability, polymorphic form found, T (0) ([1]; bis-maleate salt) | further results |
| --- | --- | --- | --- | --- | --- | --- | --- | --- | --- | --- | --- | --- | --- | --- |
| CNC(=O)c1c(C)oc2cc(Oc3ccnc4cc(OCCN5CCOCC5)ccc34)ccc12 [Bis-HBr Form I, N,2-dimethyl-6-[7-(2-morpholinoethoxy)quinolin-4-yloxy]benzofuran-3-carboxamide] | Form 1 | Form I & II | Form I & II | Form II | Form II | Form II | Form 1 | – | – | – | – | – | – | solubility (Water solubility; pH 3.4, read-out: Solubility): > 30 mg/mL |
| CNC(=O)c1c(C)oc2cc(Oc3ccnc4cc(OCCN5CCOCC5)ccc34)ccc12 [Bis-HBr Form II, N,2-dimethyl-6-[7-(2-morpholinoethoxy)quinolin-4-yloxy]benzofuran-3-carboxamide] | Form II | Form II | Form II | Form II | Form II | Form II | Form II | – | – | – | – | – | – | Solid state stability (HPLC %) T (1 week) close ([1]; bis-HBr salt): 98.70%; Solid state stability (HPLC %) T (1 week) open ([1]; bis-HBr salt): 98.61%; Solid state stability (HPLC %) T (4 week) close ([1]; bis-HBr salt): 98.66%; Solid state stability (HPLC %) T (4 week) open ([1]; bis-HBr salt): 98.62%; Solid state stability (HPLC %) T (6 week) close ([1]; bis-HBr salt): 98.61%; Solid state stability (HPLC %) T (6 week) open ([1]; bis-HBr salt): 98.49%; Solid state stability (HPLC %) T (0) ([1]; bis-HBr salt): 98.53%; solubility (Water solubility; pH 3.4): >30 mg/ml (pH 3.4) |
| CNC(=O)c1c(C)oc2cc(Oc3ccnc4cc(OCCN5CCOCC5)ccc34)ccc12 [compound 1, N,2-dimethyl-6-[7-(2-morpholinoethoxy)quinolin-4-yloxy]benzofuran-3-carboxamide] | – | – | – | – | – | – | – | – | – | – | – | – | – | blocking of VEGF-stimulated receptor autophosphorylation [2]: selectively blocks; blocking of endothelial cell survival [3]: selectively blocks; inhibition of the growth of human xenograft tumors (human xenograft tumors): significant inhibition; inhibition of tumor angiogenesis (tumor angiogenesis): significant inhibition |

Further lines, with some results ahead:

| Solid state stability, polymorphic form found, T (1 week) close ([1]; bis-HBr salt) | Solid state stability, polymorphic form found, T (1 week) open ([1]; bis-HBr salt) | Solid state stability, polymorphic form found, T (4 week) close ([1]; bis-HBr salt) | Solid state stability, polymorphic form found, T (4 week) open ([1]; bis-HBr salt) | Solid state stability, polymorphic form found, T (6 week) close ([1]; bis-HBr salt) | Solid state stability, polymorphic form found, T (6 week) open ([1]; bis-HBr salt) | Solid state stability, polymorphic form found, T (0) ([1]; bis-HBr salt) | Solid state stability, polymorphic form found, T (1 week) close ([1]; bis-maleate salt) | Solid state stability, polymorphic form found, T (4 week) close ([1]; bis-maleate salt) | Solid state stability (HPLC %) T (6 week) close ([1]; bis-maleate salt) | Solid state stability, polymorphic form found, T (6 week) close ([1]; bis-maleate salt) | Solid state stability (HPLC %) T (0) ([1]; bis-maleate salt) | Solid state stability, polymorphic form found, T (0) ([1]; bis-maleate salt) | Compound | further results |
| --- | --- | --- | --- | --- | --- | --- | --- | --- | --- | --- | --- | --- | --- | --- |
| – | – | – | – | – | – | – | Form I | Form I | 99.9% | Form I | 99.9% | Form I | CNC(=O)c1c(C)oc2cc(Oc3ccnc4cc(OCCN5CCOCC5)ccc34)ccc12 [Bis-maleate Form I, N,2-dimethyl-6-[7-(2-morpholinoethoxy)quinolin-4-yloxy]benzofuran-3-carboxamide] | Solid state stability (HPLC %) T (1 week) close ([1]; bis-maleate salt): 99.9%; Solid state stability (HPLC %) T (1 week) open ([1]; bis-maleate salt): 99.9%; Solid state stability, polymorphic form found, T (1 week) open ([1]; bis-maleate salt): Form I; Solid state stability (HPLC %) T (4 week) close ([1]; bis-maleate salt): 99.9%; Solid state stability (HPLC %) T (4 week) open ([1]; bis-maleate salt): 99.9%; Solid state stability, polymorphic form found, T (4 week) open ([1]; bis-maleate salt): Form I; Solid state stability (HPLC %) T (6 week) open ([1]; bis-maleate salt): 99.8%; Solid state stability, polymorphic form found, T (6 week) open ([1]; bis-maleate salt): Form I; solubility (Water solubility; pH 3.6, read-out: Solubility): ≥ 150 mg/mL |
| – | – | – | – | – | – | – | Form III | Form III | 99.9% | Form III | 99.9% | Form III | CNC(=O)c1c(C)oc2cc(Oc3ccnc4cc(OCCN5CCOCC5)ccc34)ccc12 [Bis-maleate Form III, N,2-dimethyl-6-[7-(2-morpholinoethoxy)quinolin-4-yloxy]benzofuran-3-carboxamide] | solubility (Water solubility; pH 3.8, read-out: Solubility): ≥ 30 mg/mL |
